Data from US9169254B2, “Spiroimidazolone derivative” (Chugai Seiyaku Kabushiki Kaisha, priority 2009, dated 2015).

target: T1, human PTH1 receptor (Homo sapiens, UniProt Q03431); assay: In vitro cAMP signal activity in HKRK-B7 cells (LLC-PK1 cells overexpressing the human PTH1 receptor); assay type: cell-based; settings: HKRK-B7 cells; compound at 1×10^−3 M; cAMP produced as percentage of that produced by hPTH(1-34) at 100 nM
T1 sequence (Q03431 27-593): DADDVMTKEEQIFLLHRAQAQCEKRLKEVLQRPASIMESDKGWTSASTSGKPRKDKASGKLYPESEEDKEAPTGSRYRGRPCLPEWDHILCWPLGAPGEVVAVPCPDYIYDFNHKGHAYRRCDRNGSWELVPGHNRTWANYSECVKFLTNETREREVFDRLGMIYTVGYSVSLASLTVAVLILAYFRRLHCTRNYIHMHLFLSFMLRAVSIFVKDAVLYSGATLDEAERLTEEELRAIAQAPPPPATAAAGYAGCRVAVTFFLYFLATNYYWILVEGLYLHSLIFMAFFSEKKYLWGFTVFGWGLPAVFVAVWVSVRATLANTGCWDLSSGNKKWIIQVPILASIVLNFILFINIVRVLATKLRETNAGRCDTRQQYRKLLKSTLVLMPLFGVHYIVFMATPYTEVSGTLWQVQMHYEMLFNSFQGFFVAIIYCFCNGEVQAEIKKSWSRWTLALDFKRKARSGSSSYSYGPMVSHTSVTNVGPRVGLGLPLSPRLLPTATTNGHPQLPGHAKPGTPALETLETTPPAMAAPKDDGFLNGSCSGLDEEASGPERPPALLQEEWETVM

| cAMP production activity (%) | SMILES |
| --- | --- |
| 150 | CCCSCCCCCC1=NC2(CCN([S@TB17](=O)(=O)/C=C/c3c(C)cc(N(C)C(N)=O)cc3C)CC2)C(=O)N1 [Compound 1122, 1-(3,5-dimethyl-4-{(E)-2-[4-oxo-2-(5-propylsulfanyl-pentyl)-1,3,8-triaza-spiro[4.5]dec-1-ene-8-sulfonyl]-vinyl}-phenyl)-1-methyl-urea] |
| 44 | CC(=O)Nc1ccc(CCS(=O)(=O)N2CCC3(CC2)N=C(C2CCCCC2)NC3=O)cc1 [Compound 167, N-{4-[2-(2-Cyclohexyl-4-oxo-1,3,8-triaza-spiro[4.5]dec-1-ene-8-sulfonyl)-ethyl]-phenyl}-acetamide] |
| 84 | CNC(=O)N(C)c1cc(C)c(/C=C/S(=O)(=O)N2CCC3(CC2)N=C(c2cccc(OC(F)(F)F)c2)NC3=O)c(C)c1 [Compound 1014, 1-(3,5-dimethyl-4-{(E)-2-[4-oxo-2-(3-trifluoromethoxy-phenyl)-1,3,8-triaza-spiro[4.5]dec-1-ene-8-sulfonyl]-vinyl}-phenyl)-1,3-dimethyl-urea] |
| 79 | O=C1NC(C2CCC(CCC(F)(F)F)CC2)=NC12CCN(S(=O)(=O)/C=C/c1cccc3c1ccn3C[C@@H](O)CO)CC2 (stereo partly drawn) [Compound 541, 8-{(E)-2-[1-((R)-2,3-dihydroxy-propyl)-1H-indol-4-yl]-ethenesulfonyl}-2-[4-(3,3,3-trifluoro-propyl)-cyclohexyl]-1,3,8-triaza-spiro[4.5]dec-1-en-4-one] |
| 87 | Cc1cc(C(=O)N(C)N(C)C)cc(C)c1/C=C/S(=O)(=O)N1CCC2(CC1)N=C(C1CCC(CCC(F)(F)F)CC1)NC2=O (stereo not shown) [Compound 629, 3,5-Dimethyl-4-((E)-2-{4-oxo-2-[4-(3,3,3-trifluoro-propyl)-cyclohexyl]-1,3,8-triaza-spiro[4.5]dec-1-ene-8-sulfonyl}-vinyl)-benzoic acid trimethylhydrazide] |
| 113 | Cc1cc(N(C)C(N)=O)cc(C)c1/C=C/S(=O)(=O)N1CCC2(CC1)N=C(CCCCCc1ccccc1)NC2=O.O=C(O)C(F)(F)F [Compound 1133, 1-(3,5-Dimethyl-4-{(E)-2-[4-oxo-2-(5-phenyl-pentyl)-1,3,8-triaza-spiro[4.5]dec-1-ene-8-sulfonyl]-vinyl}-phenyl)-1-methyl-urea trifluoroacetate] |
| 50 | CC(=O)N(C)c1c(C)cc(CCS(=O)(=O)N2CCC3(CC2)N=C(C2CCC(C)CC2)NC3=O)cc1C (stereo not shown) [Compound 783, N-(2,6-dimethyl-4-{2-[2-(4-methyl-cyclohexyl)-4-oxo-1,3,8-triaza-spiro[4.5]dec-1-ene-8-sulfonyl]-ethyl}-phenyl)-N-methyl-acetamide] |
| 44 | O=C1NC(C2CCCCC2)=NC12CCN(S(=O)(=O)/C=C/c1cccc3c1ccn3CCC(O)CO)CC2 (stereo not shown) [Compound 480, 2-cyclohexyl-8-{(E)-2-[1-(3,4-dihydroxy-butyl)-1H-indol-4-yl]-ethenesulfonyl}-1,3,8-triaza-spiro[4.5]dec-1-en-4-one] |
| 75 | Cc1cc(C(=O)N2CCC(C)(O)CC2)cc(C)c1/C=C/S(=O)(=O)N1CCC2(CC1)N=C(c1cccc(CC#N)c1)NC2=O [Compound 1187, [3-(8-{(E)-2-[4-(4-hydroxy-4-methyl-piperidine-1-carbonyl)-2,6-dimethyl-phenyl]-ethenesulfonyl}-4-oxo-1,3,8-triaza-spiro[4.5]dec-1-en-2-yl)-phenyl]-acetonitrile] |
| 49 | Cc1cc(C(=O)N2CCC(OCCN(C)C)CC2)cc(C)c1/C=C/S(=O)(=O)N1CCC2(CC1)N=C(c1cccc(OC(F)(F)F)c1)NC2=O [Compound 407, 8-((E)-2-{4-[4-(2-dimethylamino-ethoxy)-piperidine-1-carbonyl]-2,6-dimethyl-phenyl}-ethenesulfonyl)-2-(3-trifluoromethoxy-phenyl)-1,3,8-triaza-spiro[4.5]dec-1-en-4-one] |
| 76 | Cc1cc(N(CCO)C(=O)C(C)C)ccc1CCS(=O)(=O)N1CCC2(CC1)N=C(c1cccc(OC(F)(F)F)c1)NC2=O [Compound 929, N-(2-Hydroxy-ethyl)-N-(3-methyl-4-{2-[4-oxo-2-(3-trifluoromethoxy-phenyl)-1,3,8-triaza-spiro[4.5]dec-1-ene-8-sulfonyl]-ethyl}-phenyl)-isobutylamide] |
| 43 | Cc1cc(N2C(=O)NC(C)(C)C2=O)cc(C)c1/C=C/S(=O)(=O)N1CCC2(CC1)N=C(C1CCC(C)CC1)NC2=O (stereo not shown) [Compound 507, 3-(3,5-dimethyl-4-{(E)-2-[2-(4-methyl-cyclohexyl)-4-oxo-1,3,8-triaza-spiro[4.5]dec-1-ene-8-sulfonyl]-vinyl}-phenyl)-5,5-dimethyl-imidazolidine-2,4-dione] |
| 25 | Cc1cc(N2OCCC2=O)ccc1/C=C/S(=O)(=O)N1CCC2(CC1)N=C(C1CCC(C)CC1)NC2=O (stereo not shown) [Compound 580, 2-(4-methyl-cyclohexyl)-8-{(E)-2-[2-methyl-4-(3-oxo-isoxazolidin-2-yl)-phenyl]-ethenesulfonyl}-1,3,8-triaza-spiro[4.5]dec-1-en-4-one] |
| 32 | Cc1cc(NC(=O)[C@@H](N)C(C)C)cc(C)c1/C=C/S(=O)(=O)N1CCC2(CC1)N=C(C1CCCCC1)NC2=O [Compound 735, (S)-2-Amino-N-{4-[(E)-2-(2-cyclohexyl-4-oxo-1,3,8-triaza-spiro[4.5]dec-1-ene-8-sulfonyl)-vinyl]-3,5-dimethyl-phenyl}-3-methyl-butylamide] |
| 74 | CC(=O)N(C)c1ccc(/C=C/S(=O)(=O)N2CCC3(CC2)N=C(c2cccc(OC(F)(F)F)c2)NC3=O)c(C)c1 [Compound 237, N-methyl-N-(3-methyl-4-{(E)-2-[4-oxo-2-(3-trifluoromethoxy-phenyl)-1,3,8-triaza-spiro[4.5]dec-1-ene-8-sulfonyl]-vinyl}-phenyl)-acetamide] |
| 94 | Cc1cc(N(C)C(N)=O)cc(C)c1CCS(=O)(=O)N1CCC2(CC1)N=C(C1C3CCC1CC3)NC2=O (stereo not shown) [Compound 1056, 1-{4-[2-(2-bicyclo[2.2.1]hept-7-yl-4-oxo-1,3,8-triaza-spiro[4.5]dec-1-ene-8-sulfonyl)-ethyl]-3,5-dimethyl-phenyl}-1-methyl-urea] |
| 11 | CN(C(=O)c1cccc(C2=NC3(CCN(S(=O)(=O)c4cccc(Cl)c4)CC3)C(=O)N2)c1)c1ccccc1 [Compound 349, 3-[8-(3-chloro-benzenesulfonyl)-4-oxo-1,3,8-triaza-spiro[4.5]dec-1-en-2-yl]-N-methyl-N-phenyl-benzamide] |
| 96 | Cc1cc(N(C)C(N)=O)cc(C)c1/C=C/S(=O)(=O)N1CCC2(CC1)N=C(CCCCCCCCCCCC(=O)O)NC2=O [Compound 1131, 12-(8-{(E)-2-[2,6-Dimethyl-4-(1-methyl-ureido)-phenyl]-ethenesulfonyl}-4-oxo-1,3,8-triaza-spiro[4.5]dec-1-en-2-yl)-dodecanoic acid] |
| 6.3 | Cc1cc(CN)cc(C)c1/C=C/S(=O)(=O)N1CCC2(CC1)N=C(C1CCC(CCC(F)(F)F)CC1)NC2=O (stereo not shown) [Compound 1290, 8-[(E)-2-(4-aminomethyl-2,6-dimethyl-phenyl)-ethenesulfonyl]-2-[4-(3,3,3-trifluoro-propyl)-cyclohexyl]-1,3,8-triaza-spiro[4.5]dec-1-en-4-one] |
| 54 | Cc1cc2ccc1CCS(=O)(=O)N1CCC3(CC1)N=C(NC3=O)c1cc(cc(C(F)(F)F)c1)OCCC/C=C/COCCN(C)C2=O [Compound 1436] |
| 84 | Cc1cc2nc(N)oc2c(C)c1CCS(=O)(=O)N1CCC2(CC1)N=C(C1CCC(C)CC1)NC2=O (stereo not shown) [Compound 1178, 8-[2-(2-Amino-5,7-dimethyl-benzoxazol-6-yl)-ethanesulfonyl]-2-(4-methyl-cyclohexyl)-1,3,8-triaza-spiro[4.5]dec-1-en-4-one] |
| 103 | Cc1cc(C(=O)N2CCC(C)(O)CC2)cc(C)c1CCS(=O)(=O)N1CCC2(CC1)N=C(c1ccc(F)c(C(F)(F)F)c1)NC2=O [Compound 803, 2-(4-fluoro-3-trifluoromethyl-phenyl)-8-{2-[4-(4-hydroxy-4-methyl-piperidine-1-carbonyl)-2,6-dimethyl-phenyl]-ethanesulfonyl}-1,3,8-triaza-spiro[4.5]dec-1-en-4-one] |
| 157 | O=C1NC(CCCCCCCCC(F)(F)F)=NC12CCN(S(=O)(=O)CCc1cccc3c1ccn3C[C@H](O)CO)CC2 [Compound 789, 8-{2-[1-((S)-2,3-dihydroxy-propyl)-1H-indol-4-yl]-ethanesulfonyl}-2-(9,9,9-trifluoro-nonyl)-1,3,8-triaza-spiro[4.5]dec-1-en-4-one] |
| 77 | Cc1cc(N2NCCC2=O)ccc1/C=C/S(=O)(=O)N1CCC2(CC1)N=C([C@H]1CC[C@H](C)CC1)NC2=O [Compound 588, 2-(4-methyl-cyclohexyl)-8-{(E)-2-[2-methyl-4-(5-oxo-pyrazolidin-1-yl)-phenyl]-ethenesulfonyl}-1,3,8-triaza-spiro[4.5]dec-1-en-4-one] |
| 41 | O=C1NC(c2cccc(C(F)(F)F)c2)=NC12CCN(S(=O)(=O)c1cccc(Cl)c1)CC2 [Compound 31, 8-(3-chloro-benzenesulfonyl)-2-(3-trifluoromethyl-phenyl)-1,3,8-triaza-spiro[4.5]dec-1-en-4-one] |
